Results: patent US12540131B2 (Merck Sharp & Dohme LLC, priority 2019, dated 2026)

Biological target: GST tagged truncated human mutant G2019S LRRK2 (Homo sapiens (Human), UniProt Q5S007, G2019S)
Experiment: LRRK2 Km ATP LanthaScreen Assay
Type: biochemical
Conditions: G2019S LRRK2, 134 μM ATP (Km ATP), mean values; for IC50: read-out: LRRK2 pIC50 (converted)
Procedure: General Experimental Information: • Unless otherwise noted, all reactions are magnetically stirred. Unless otherwise noted, when diethyl ether is used in the experiments described below, it is Fisher ACS certified material and is stabilized with BHT. Unless otherwise noted, “concentrated” and/or “solvent removed under reduced pressure” means evaporating the solvent from a solution or mixture using a rotary evaporator or vacuum pump. Unless otherwise noted, flash chromatography is carried out on a Teledyne Isco (Lincoln, NE), Analogix (Burlington, WI), or Biotage (Stockholm, SWE) automated chromatography system using a commercially available cartridge as the column. Columns may be purchased from Teledyne Isco, Analogix, Biotage, Varian (Palo Alto, CA), or Supelco (Bellefonte, PA) and are usually filled with silica gel as the stationary phase. Reverse phase prep-HPLC conditions, where used, can be found at the end of each experimental section. Aqueous solutions were concentrated on a Genevac (Ipswich, ENG) or by freeze-drying/lyophilization. Unless otherwise noted, all LRRK2 pIC50 data presented in tables refers to the LRRK2 G2019S Km ATP LanthaScreen™ assay (Life Technologies Corp., Carlsbad, CA) that is described in the Biological Assay section.
The pIC50 values reported herein were measured as follows.
Biological Assay: LRRK2 Km ATP LanthaScreen™ Assay
Compound potency against LRRK2 kinase activity was determined using LanthaScreen™ technology from Life Technologies Corporation (Carlsbad, CA) using a GST20 tagged truncated human mutant G2019S LRRK2 in the presence of the fluorescein-labeled peptide substrate LRRKtide® (LRRK2 phosphorylated ezrin/radixin/moesin (ERM)), also from Life Technologies. The data presented for the Km ATP LanthaScreen™ Assay represents mean IC50 values based on several test results and may have reasonable deviations depending on the specific conditions and reagents used. Km is the Michaelis constant of an enzyme and is defined as the concentration of native substrate (ATP for a kinase) which permits the enzyme to achieve half Vmax (Vmax=rate of reaction when the enzyme is saturated with substrate). IC50 (half-maximal inhibitory concentration) represents the concentration of inhibitor required to inhibit LRRK2 kinase activity by 50%. Assays were performed in the presence of 134 μM ATP (Km ATP). Upon completion, the assay was stopped, and phosphorylated substrate detected with a terbium (Tb)-labeled anti-pERM antibody (cat. no. PV4898). The compound dose response was prepared by diluting a 10 mM stock of compound to a maximum concentration of 9.99 μM in 100% DMSO, followed by custom fold serial dilution in DMSO nine times. 20 nL of each dilution was spotted via a Labcyte Echo onto a 384-well black-sided plate (Corning 3575) followed by 15 μl of a 1.25 nM enzyme solution in 1× assay buffer (50 mM Tris pH 8.5, 10 mM MgCl2, 0.01% Brij-35, 1 mM EGTA, 2 mM dithiothreitol, 0.05 mM sodium orthovanadate). Following a 15-minute incubation period at RT, the kinase reaction was started with the addition of 5 μl of 400 nM fluorescein-labeled LRRKtide® (LRRK2 phosphorylated ezrin/radixin/moesin (ERM)) peptide substrate and 134 μM ATP solution in 1× assay buffer. The reaction was allowed to progress at ambient temperature for 90 minutes. The reaction was then stopped by the addition of 20 μl of TR-FRET Dilution Buffer (Life Technologies, Carlsbad, CA) containing 2 nM Tb-labeled anti-phospho LRRKtide® (LRRK2 phosphorylated ezrin/radixin/moesin (ERM)) antibody and 10 mM EDTA (Life Technologies, Carlsbad, CA). After an incubation period of 1 h at RT, the plate was read on an EnVision® multimode plate reader (Perkin Elmer, Waltham, MA) with an excitation wavelength of 337 nm (Laser) and a reading emission at both 520 and 495 nm. Compound IC50 values were interpolated from nonlinear regression best-fits of the log of the final compound concentration, plotted as a function of the 520/495-nm emission ratio using activity base “Abase”). […]

GST tagged truncated human mutant G2019S LRRK2, sequence (Q5S007 970-2527 G2019S): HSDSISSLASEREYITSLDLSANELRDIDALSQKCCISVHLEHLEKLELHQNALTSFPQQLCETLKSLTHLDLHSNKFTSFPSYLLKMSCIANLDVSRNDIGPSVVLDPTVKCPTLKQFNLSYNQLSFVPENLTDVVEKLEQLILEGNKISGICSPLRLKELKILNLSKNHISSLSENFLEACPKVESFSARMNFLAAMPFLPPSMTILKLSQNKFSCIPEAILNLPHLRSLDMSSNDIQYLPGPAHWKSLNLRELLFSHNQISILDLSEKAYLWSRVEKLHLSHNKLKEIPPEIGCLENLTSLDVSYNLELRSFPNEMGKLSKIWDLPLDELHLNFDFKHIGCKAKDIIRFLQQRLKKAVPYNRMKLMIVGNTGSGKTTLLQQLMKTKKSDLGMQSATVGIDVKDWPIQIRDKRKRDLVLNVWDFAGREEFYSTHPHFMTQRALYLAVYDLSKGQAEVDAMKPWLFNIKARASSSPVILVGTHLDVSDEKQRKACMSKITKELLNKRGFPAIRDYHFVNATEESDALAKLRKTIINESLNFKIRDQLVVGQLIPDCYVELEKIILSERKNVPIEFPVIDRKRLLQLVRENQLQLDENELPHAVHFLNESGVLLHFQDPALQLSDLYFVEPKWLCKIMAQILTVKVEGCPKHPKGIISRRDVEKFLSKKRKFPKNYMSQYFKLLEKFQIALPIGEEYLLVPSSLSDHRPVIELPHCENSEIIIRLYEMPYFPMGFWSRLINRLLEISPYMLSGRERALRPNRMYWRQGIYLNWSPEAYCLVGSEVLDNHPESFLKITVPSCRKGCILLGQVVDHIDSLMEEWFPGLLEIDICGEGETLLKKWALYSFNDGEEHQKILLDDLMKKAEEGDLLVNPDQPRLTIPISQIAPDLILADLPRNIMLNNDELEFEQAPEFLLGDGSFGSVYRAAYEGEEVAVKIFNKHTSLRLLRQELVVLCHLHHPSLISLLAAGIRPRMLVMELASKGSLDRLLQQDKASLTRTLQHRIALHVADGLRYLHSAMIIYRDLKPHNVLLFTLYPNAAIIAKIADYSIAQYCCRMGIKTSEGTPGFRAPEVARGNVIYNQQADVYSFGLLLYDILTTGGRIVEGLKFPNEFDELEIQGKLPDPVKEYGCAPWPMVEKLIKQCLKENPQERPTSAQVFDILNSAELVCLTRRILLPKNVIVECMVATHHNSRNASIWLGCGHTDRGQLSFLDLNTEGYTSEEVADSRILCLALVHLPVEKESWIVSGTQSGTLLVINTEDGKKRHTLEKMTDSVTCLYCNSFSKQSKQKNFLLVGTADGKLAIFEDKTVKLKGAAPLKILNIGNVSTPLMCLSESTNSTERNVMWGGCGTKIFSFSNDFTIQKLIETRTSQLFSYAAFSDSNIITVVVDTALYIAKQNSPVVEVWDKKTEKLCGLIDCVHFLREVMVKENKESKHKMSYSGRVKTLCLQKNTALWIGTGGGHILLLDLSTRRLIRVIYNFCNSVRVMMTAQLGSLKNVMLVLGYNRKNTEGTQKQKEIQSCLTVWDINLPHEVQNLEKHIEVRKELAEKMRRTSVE

SMILES	IC50	LRRK2 pIC50
CC1(N2CCC(n3cc(Nc4ncc5cc(Cl)c(C6CC67CC7)cc5n4)cn3)CC2)COC1 (single isomer, unassigned) [Ex-2.5, (S) or (R) 6-chloro-N-{1-[1-(3-methyloxetan-3-yl)piperidin-4-yl]-1H-pyrazol-4-yl}-7-(spiro[2.2]pentan-1-yl)quinazolin-2-amine]	2.19 nM	
CC1(N2CCC(n3cc(Nc4ncc5cc(Cl)c(C6CC67CC7)cc5n4)cn3)CC2)COC1 (single isomer, unassigned) [Ex-2.6, (S) or (R) 6-chloro-N-{1-[1-(3-methyloxetan-3-yl)piperidin-4-yl]-1H-pyrazol-4-yl}-7-(spiro[2.2]pentan-1-yl)quinazolin-2-amine]	< 0.631 nM	
CC1(N2CC3(CC(n4cc(Nc5ncc6cc(Cl)c(C7CC78CC8)cc6n5)cn4)C3)C2)COC1 (single isomer, unassigned) [Ex-2.7, (S) or (R) 6-chloro-N-{1-[2-(3-methyloxetan-3-yl)-2-azaspiro[3.3]heptan-6-yl]-1H-pyrazol-4-yl}-7-(spiro[2.2]pentan-1-yl)quinazolin-2-amine]	0.813 nM	
CC1(N2CC3(CC(n4cc(Nc5ncc6cc(Cl)c(C7CC78CC8)cc6n5)cn4)C3)C2)COC1 (single isomer, unassigned) [Ex-2.8, (S) or (R) 6-chloro-N-{1-[2-(3-methyloxetan-3-yl)-2-azaspiro[3.3]heptan-6-yl]-1H-pyrazol-4-yl}-7-(spiro[2.2]pentan-1-yl)quinazolin-2-amine]	1.26 nM	
CC1(N2CCC(n3ncc(Nc4ncc5cc(Cl)c(C6CC67CCC7)cc5n4)c3Cl)CC2)COC1 (single isomer, unassigned) [Ex-2.9, (S) or (R) 6-chloro-N-{5-chloro-1-[1-(3-methyloxetan-3-yl)piperidin-4-yl]-1H-pyrazol-4-yl}-7-(spiro[2.3]hexan-1-yl)quinazolin-2-amine]	36.3 nM	
CC1(Cn2ncc(Nc3ncc4cc(Cl)c([C@@H]5CCN(C6COC6)C[C@H]5F)cc4n3)c2Cl)COC1 (single isomer, unassigned) [Ex-2.11, (3S,4S) or (3R,4R) 6-chloro-N-{5-chloro-1-[(3-methyloxetan-3-yl)methyl]-1H-pyrazol-4-yl}-7-[3-fluoro-1-(oxetan-3-yl)piperidin-4-yl]quinazolin-2-amine]		9.10
CC1(Cn2ncc(Nc3ncc4cc(Cl)c([C@H]5CCN(C6COC6)C[C@@H]5F)cc4n3)c2Cl)COC1 (single isomer, unassigned) [Ex-2.12, (3S,4S) or (3R,4R) 6-chloro-N-{5-chloro-1-[(3-methyloxetan-3-yl)methyl]-1H-pyrazol-4-yl}-7-[3-fluoro-1-(oxetan-3-yl)piperidin-4-yl]quinazolin-2-amine]		>9.20
Cc1c(Nc2ncc3cc(Cl)c(C4CCN(C5COC5)CC4)cc3n2)cnn1C1CCOC1 (single isomer, unassigned) [Ex-2.23, (S) or (R) 6-chloro-N-[5-methyl-1-(oxolan-3-yl)-1H-pyrazol-4-yl]-7-[1-(oxetan-3-yl)piperidin-4-yl]quinazolin-2-amine]	1.15 nM	
Cc1c(Nc2ncc3cc(Cl)c(C4CCN(C5COC5)CC4)cc3n2)cnn1C1CCOC1 (single isomer, unassigned) [Ex-2.24, (S) or (R) 6-chloro-N-[5-methyl-1-(oxolan-3-yl)-1H-pyrazol-4-yl]-7-[1-(oxetan-3-yl)piperidin-4-yl]quinazolin-2-amine]	0.741 nM	
Cc1c(Nc2ncc3cc(Cl)c(C4CCN(C5(C)COC5)CC4)cc3n2)cnn1C1CCOC1 (single isomer, unassigned) [Ex-2.25, (S) or (R) 6-chloro-7-[1-(3-methyloxetan-3-yl)piperidin-4-yl]-N-[5-methyl-1-(oxolan-3-yl)-1H-pyrazol-4-yl]quinazolin-2-amine]	0.891 nM	
Cc1c(Nc2ncc3cc(Cl)c(C4CCN(C5(C)COC5)CC4)cc3n2)cnn1C1CCOC1 (single isomer, unassigned) [Ex-2.26, (S) or (R) 6-chloro-7-[1-(3-methyloxetan-3-yl)piperidin-4-yl]-N-[5-methyl-1-(oxolan-3-yl)-1H-pyrazol-4-yl]quinazolin-2-amine]	< 0.631 nM	
Cc1c(Nc2ncc3cc(Cl)c(C4CCN([C@H]5COC[C@H]5O)CC4)cc3n2)cnn1C12CC(C1)C2 (single isomer, unassigned) [Ex-2.27, (3S,4S) or (3R,4R) 4-[4-(2-{[1-(bicyclo[1.1.1]pentan-1-yl)-5-methyl-1H-pyrazol-4-yl]amino}-6-chloroquinazolin-7-yl)piperidin-1-yl]oxolan-3-ol]		8.87
Cc1c(Nc2ncc3cc(Cl)c(C4CCN([C@@H]5COC[C@@H]5O)CC4)cc3n2)cnn1C12CC(C1)C2 (single isomer, unassigned) [Ex-2.28, (3S,4S) or (3R,4R) 4-[4-(2-{[1-(bicyclo[1.1.1]pentan-1-yl)-5-methyl-1H-pyrazol-4-yl]amino}-6-chloroquinazolin-7-yl)piperidin-1-yl]oxolan-3-ol]		>9.20
Cc1c(Nc2ncc3cc(Cl)c(C4CCN(C5(C)COC5)CC4)cc3n2)cnn1C1CC1(F)F (single isomer, unassigned) [Ex-2.29, (S) or (R) 6-chloro-N-[1-(2,2-difluorocyclopropyl)-5-methyl-1H-pyrazol-4-yl]-7-[1-(3-methyloxetan-3-yl)piperidin-4-yl]quinazolin-2-amine]	1.66 nM	
Cc1c(Nc2ncc3cc(Cl)c(C4CCN(C5(C)COC5)CC4)cc3n2)cnn1C1CC1(F)F (single isomer, unassigned) [Ex-2.30, (S) or (R) 6-chloro-N-[1-(2,2-difluorocyclopropyl)-5-methyl-1H-pyrazol-4-yl]-7-[1-(3-methyloxetan-3-yl)piperidin-4-yl]quinazolin-2-amine]	0.646 nM	
Cc1cc2cnc(Nc3cnn(C4CC4(F)F)c3Cl)nc2cc1C1CCN([C@H]2COC[C@H]2O)CC1 (single isomer, unassigned) [Ex-2.33, (R)(3S,4S) or (R)(3R,4R) or (S)(3S,4S) or (S)(3R,4R) 4-[4-(2-{[5-chloro-1-(2,2-difluorocyclopropyl)-1H-pyrazol-4-yl]amino}-6-methylquinazolin-7-yl)piperidin-1-yl]oxolan-3-ol]	< 0.631 nM	
C[C@]1(N2CCC(c3cc4nc(Nc5cnn(C67CC(C6)C7)c5)ncc4cc3Cl)CC2)COC[C@H]1O (single isomer, unassigned) [Ex-2.35, (3S,4S) or (3R,4R) 4-[4-(2-{[1-(bicyclo[1.1.1]pentan-1-yl)-1H-pyrazol-4-yl]amino}-6-chloroquinazolin-7-yl)piperidin-1-yl]-4-methyloxolan-3-ol]	3.89 nM	
Cc1cc2cnc(Nc3cnn(C4CC4)c3Cl)nc2cc1C1CCN([C@@]2(C)COC[C@H]2O)CC1 (single isomer, unassigned) [Ex-2.36, (3S,4S) or (3R,4R) 4-(4-{2-[(5-chloro-1-cyclopropyl-1H-pyrazol-4-yl)amino]-6-methylquinazolin-7-yl}piperidin-1-yl)-4-methyloxolan-3-ol]	< 0.631 nM	
Cc1cc2cnc(Nc3cnn(C4CC4)c3Cl)nc2cc1C1CCN([C@]2(C)COC[C@@H]2O)CC1 (single isomer, unassigned) [Ex-2.37, (3S,4S) or (3R,4R) 4-(4-{2-[(5-chloro-1-cyclopropyl-1H-pyrazol-4-yl)amino]-6-methylquinazolin-7-yl}piperidin-1-yl)-4-methyloxolan-3-ol]		7.78
